{
  "source": "patent US20120034613A1",
  "about": "“Apparatus and Method for Testing Relationships Between Gene Expression and Physical Appearance of Skin” (NSE Products, Inc., priority 2010, published 2012)",
  "system": "EpidermFT™ Skin Model (EFT-400) full thickness skin cultures",
  "assay": "Affymetrix GeneChip HG U133 Plus 2.0 microarray global gene expression, agent-exposed vs untreated skin cultures",
  "format": "cell-based, human",
  "settings": "0.5% vs untreated, 24 hr; down",
  "data": [
    {"smiles": "OCc1ccccc1O[C@@H]1O[C@H](CO)[C@@H](O)[C@H](O)[C@H]1O", "note": "[Salicin, 2-(Hydroxymethyl)phenyl β-D-glucospyranoside]", "values": [
      {"measurement": "Fold change HAS3 (223541_at)", "result": 3.713},
      {"measurement": "Fold change HIP1R (209558_s_at)", "result": 3.322},
      {"measurement": "Fold change HMGCR (202539_s_at)", "result": 3.621},
      {"measurement": "Fold change HMGCR (202540_s_at)", "result": 3.753},
      {"measurement": "Fold change HMOX1 (203665_at)", "result": 3.193},
      {"measurement": "Fold change HOMER2 (217080_s_at)", "result": 3.789},
      {"measurement": "Fold change HOOK1 (219976_at)", "result": 3.54},
      {"measurement": "Fold change HS3ST6 (239547_at)", "result": 3.557},
      {"measurement": "Fold change HSD17B1 (205829_at)", "result": 3.15},
      {"measurement": "Fold change HYAL4 (220249_at)", "result": 3.117},
      {"measurement": "Fold change IL1F5 (222223_s_at)", "result": 3.177},
      {"measurement": "Fold change IL28RA (244261_at)", "result": 3.252},
      {"measurement": "Fold change IRX3 (229638_at)", "result": 3.118},
      {"measurement": "Fold change ITGAM (205786_s_at)", "result": 3.645},
      {"measurement": "Fold change JUB (225806_at)", "result": 3.698},
      {"measurement": "Fold change JUB (225807_at)", "result": 3.198},
      {"measurement": "Fold change JUB (1553764_a_at)", "result": 3.662},
      {"measurement": "Fold change KCTD11 (235857_at)", "result": 3.157},
      {"measurement": "Fold change KIAA0485 (214295_at)", "result": 3.094},
      {"measurement": "Fold change KIAA0513 (204546_at)", "result": 3.413},
      {"measurement": "Fold change KIAA0746 /// SERINC2 (212314_at)", "result": 3.628},
      {"measurement": "Fold change KIAA1239 (230765_at)", "result": 3.239},
      {"measurement": "Fold change KIAA1609 (65438_at)", "result": 3.527},
      {"measurement": "Fold change KIAA1609 (221843_s_at)", "result": 3.461},
      {"measurement": "Fold change KIF21A (226003_at)", "result": 3.77},
      {"measurement": "Fold change KIF21A (231875_at)", "result": 3.78},
      {"measurement": "Fold change KLF5 (209211_at)", "result": 3.563},
      {"measurement": "Fold change KLHL18 (1557165_s_at)", "result": 3.408},
      {"measurement": "Fold change KLK11 (205470_s_at)", "result": 3.318},
      {"measurement": "Fold change KLK13 (205783_at)", "result": 3.619},
      {"measurement": "Fold change KRT15 (204734_at)", "result": 3.6},
      {"measurement": "Fold change KRT34 (206969_at)", "result": 3.171},
      {"measurement": "Fold change LAD1 (203287_at)", "result": 3.072},
      {"measurement": "Fold change LOC283070 (226382_at)", "result": 3.685},
      {"measurement": "Fold change LOC653602 (229546_at)", "result": 3.058},
      {"measurement": "Fold change LOC728377 (228596_at)", "result": 3.786},
      {"measurement": "Fold change LOC100128178 (232090_at)", "result": 3.299},
      {"measurement": "Fold change LOC100128443 /// MAST4 (225613_at)", "result": 3.231},
      {"measurement": "Fold change LOC100128501 (229296_at)", "result": 3.452},
      {"measurement": "Fold change LOC100130885 (236213_at)", "result": 3.36},
      {"measurement": "Fold change LPCAT2 (227889_at)", "result": 3.256},
      {"measurement": "Fold change LYPLA1 (203007_x_at)", "result": 3.221},
      {"measurement": "Fold change MACC1 (232151_at)", "result": 3.738},
      {"measurement": "Fold change MACC1 (1566766_a_at)", "result": 3.181},
      {"measurement": "Fold change MBD1 (241813_at)", "result": 3.076},
      {"measurement": "Fold change ME1 (204058_at)", "result": 3.413},
      {"measurement": "Fold change ME1 (204059_s_at)", "result": 3.029},
      {"measurement": "Fold change MICALCL (243611_at)", "result": 3.335},
      {"measurement": "Fold change MICALL1 (221779_at)", "result": 3.602},
      {"measurement": "Fold change MKNK2 (223199_at)", "result": 3.427},
      {"measurement": "Fold change MLLT4 (224685_at)", "result": 3.09},
      {"measurement": "Fold change MPP7 (1564308_a_at)", "result": 3.034},
      {"measurement": "Fold change MPZL2 (203780_at)", "result": 3.468},
      {"measurement": "Fold change MPZL2 (230518_at)", "result": 3.326},
      {"measurement": "Fold change MSMB (207430 s_at)", "result": 3.689},
      {"measurement": "Fold change MTUS1 (212095_s_at)", "result": 3.034},
      {"measurement": "Fold change MTUS1 (212096_s_at)", "result": 3.773},
      {"measurement": "Fold change MYO5B (225301_s_at)", "result": 3.815},
      {"measurement": "Fold change NDRG2 (206453_s_at)", "result": 3.922},
      {"measurement": "Fold change NDRG2 (214279_s_at)", "result": 3.705},
      {"measurement": "Fold change NLRX1 (1553695_a_at)", "result": 3.887},
      {"measurement": "Fold change NOL3 (221566_s_at)", "result": 3.704},
      {"measurement": "Fold change NOL3 (221567_at)", "result": 3.416},
      {"measurement": "Fold change NT5C3 (223298_s_at)", "result": 3.641},
      {"measurement": "Fold change OMG (238720_at)", "result": 3.099},
      {"measurement": "Fold change P2RY2 (206277_at)", "result": 3.679},
      {"measurement": "Fold change P11 (206605_at)", "result": 3.785},
      {"measurement": "Fold change PANK1 (226649_at)", "result": 3.261},
      {"measurement": "Fold change PCDH7 (228640_at)", "result": 3.307},
      {"measurement": "Fold change PCSK6 (210553_x_at)", "result": 3.573},
      {"measurement": "Fold change PITX2 (207558_s_at)", "result": 3.504},
      {"measurement": "Fold change PLCXD1 (218951_s_at)", "result": 3.092},
      {"measurement": "Fold change PLLP (204519_s_at)", "result": 3.781},
      {"measurement": "Fold change PLXDC2 (227276_at)", "result": 3.44},
      {"measurement": "Fold change PLXNA2 (213030_s_at)", "result": 3.036},
      {"measurement": "Fold change PNPLA1 (1553364_at)", "result": 3.553},
      {"measurement": "Fold change PPID (228469_at)", "result": 3.327},
      {"measurement": "Fold change PPP1R13L (218849_s_at)", "result": 3.053},
      {"measurement": "Fold change PPP2R2C (223574_x_at)", "result": 3.091},
      {"measurement": "Fold change PSG4 (208191_x_at)", "result": 3.458},
      {"measurement": "Fold change PSPH (205048_s_at)", "result": 3.381},
      {"measurement": "Fold change PTGER3 (210375_at)", "result": 3.745},
      {"measurement": "Fold change PTPN3 (203997_at)", "result": 3.799},
      {"measurement": "Fold change PTPN3 (227944_at)", "result": 3.077},
      {"measurement": "Fold change RAB3D (225001_at)", "result": 3.306},
      {"measurement": "Fold change RAB7B (230266_at)", "result": 3.207},
      {"measurement": "Fold change RAET1E (1552777_a_at)", "result": 3.558},
      {"measurement": "Fold change RASAL1 (219752_at)", "result": 3.507},
      {"measurement": "Fold change RBM35A (219121_s_at)", "result": 3.786},
      {"measurement": "Fold change RDH13 (1559190_s_at)", "result": 3.726},
      {"measurement": "Fold change RHBDL2 (1554895_a_at)", "result": 3.193},
      {"measurement": "Fold change RHOD (209885_at)", "result": 3.12},
      {"measurement": "Fold change RHOU (223168_at)", "result": 3.283},
      {"measurement": "Fold change S1PR5 (230464_at)", "result": 3.789},
      {"measurement": "Fold change S100P (204351_at)", "result": 3.66},
      {"measurement": "Fold change SCD (200832_s_at)", "result": 3.77},
      {"measurement": "Fold change SCD /// SCDOS (223839_s_at)", "result": 3.34},
      {"measurement": "Fold change SCN4B (236359_at)", "result": 3.105},
      {"measurement": "Fold change SDC1 (201287_s_at)", "result": 3.32},
      {"measurement": "Fold change SEPT8 (209000_s_at)", "result": 3.657},
      {"measurement": "Fold change SERPINB3 (209719_x_at)", "result": 3.665},
      {"measurement": "Fold change SERPINB3 (209720_s_at)", "result": 3.147},
      {"measurement": "Fold change SERPINB7 (206421_s_at)", "result": 3.623},
      {"measurement": "Fold change SERPINB12 (1553057_at)", "result": 3.711},
      {"measurement": "Fold change SFT2D2 (214838_at)", "result": 3.904},
      {"measurement": "Fold change SGPL1 (212322_at)", "result": 3.184},
      {"measurement": "Fold change SLC4A11 (223748_at)", "result": 3.82},
      {"measurement": "Fold change SLC5A1 (242773_at)", "result": 3.714},
      {"measurement": "Fold change SLC22A3 (205421_at)", "result": 3.516},
      {"measurement": "Fold change SLC38A1 (224579_at)", "result": 3.045},
      {"measurement": "Fold change SLC38A4 (220786 s_at)", "result": 3.844},
      {"measurement": "Fold change SMPD3 (231732_at)", "result": 3.594},
      {"measurement": "Fold change SORL1 (203509_at)", "result": 3.285},
      {"measurement": "Fold change SPRR3 (232082_x_at)", "result": 3.303}
    ]}
  ]
}
